Experimental data reported in PubChem BioAssay (NCI).
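Growth conditions: 96-well plates. Treatment: test compound, 48 hours, 5 concentrations. Analysis: linear interpolation between bracketing concentrations; unreached endpoints set to highest concentration. TGI: concentration producing complete growth inhibition.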

Columns and labels:
Assay in all cases: NCI tumour cell line growth inhibition, 48 h
[1] = tested on: 786-0 renal
[2] = tested on: A498 renal
[3] = tested on: A549 NSCLC
[4] = tested on: ACHN renal
[5] = tested on: CAKI-1 renal
[6] = tested on: CCRF-CEM leukemia
[7] = tested on: COLO 205 colon
[8] = tested on: DLD-1 colon
[9] = tested on: DMS 114 small cell lung
[10] = tested on: EKVX NSCLC
[11] = tested on: HCC-2998 colon
[12] = tested on: HCT-116 colon
[13] = tested on: HL-60(TB) leukemia
[14] = tested on: HOP-18 NSCLC
[15] = tested on: HOP-62 NSCLC
[16] = tested on: HOP-92 NSCLC
[17] = tested on: HT29 colon
[18] = tested on: IGROV1 ovarian
[19] = tested on: K-562 leukemia
[20] = tested on: KM12 colon
[21] = tested on: KM20L2 colon
[22] = tested on: LOX IMVI melanoma
[23] = tested on: LXFL 529 NSCLC
[24] = tested on: M14 melanoma
[25] = tested on: M19-MEL melanoma
[26] = tested on: MALME-3M melanoma
[27] = tested on: MOLT-4 leukemia
[28] = tested on: NCI-H226 lung
[29] = tested on: NCI-H23 lung
[30] = tested on: NCI-H460 lung
[31] = tested on: NCI-H522 lung
[32] = tested on: OVCAR-3 ovarian
[33] = tested on: OVCAR-4 ovarian
[34] = tested on: OVCAR-8 ovarian
[35] = tested on: RXF 393 renal
[36] = tested on: SF-268 CNS
[37] = tested on: SF-295 CNS
[38] = tested on: SF-539 CNS
[39] = tested on: SK-MEL-28 melanoma
[40] = tested on: SK-MEL-5 melanoma
[41] = tested on: SK-OV-3 ovarian
[42] = tested on: SN12C renal
[43] = tested on: SNB-19 CNS
[44] = tested on: SNB-75 CNS
[45] = tested on: SNB-78 CNS
[46] = tested on: SR leukemia
[47] = tested on: SW-620 colon
[48] = tested on: TK-10 renal
[49] = tested on: U251 CNS
[50] = tested on: UACC-257 melanoma
[51] = tested on: UACC-62 melanoma
[52] = tested on: UO-31 renal
[53] = tested on: XF 498 CNS
[54] = tested on: BT-549 breast
[55] = tested on: DU-145 prostate
[56] = tested on: HCT-15 colon
[57] = tested on: HS 578T breast
[58] = tested on: MCF7 breast
[59] = tested on: MDA-MB-231 breast
[60] = tested on: MDA-MB-435
[61] = tested on: MDA-N
[62] = tested on: NCI/ADR-RES ovarian
[63] = tested on: OVCAR-5 ovarian
[64] = tested on: PC-3 prostate
[65] = tested on: SK-MEL-2 melanoma
[66] = tested on: T-47D breast
[67] = tested on: RPMI-8226 leukemia

## COc1nc2c(nc(N)n2C2OCC(O)C(O)C2O)c(=O)n1C (stereo not given)
[1]
  TGI: > 100 µM
[2]
  TGI: > 100 µM
[3]
  TGI: > 100 µM
[4]
  TGI: > 100 µM
[5]
  TGI: > 100 µM
[6]
  TGI: > 100 µM
[7]
  TGI: > 100 µM
[8]
  TGI: > 100 µM
[9]
  TGI: > 100 µM
[10]
  TGI: > 100 µM
[11]
  TGI: > 100 µM
[12]
  TGI: > 100 µM
[13]
  TGI: > 100 µM
[14]
  TGI: > 100 µM
[15]
  TGI: > 100 µM
[16]
  TGI: > 100 µM
[17]
  TGI: > 100 µM
[18]
  TGI: > 100 µM
[19]
  TGI: > 100 µM
[20]
  TGI: > 100 µM
[21]
  TGI: > 100 µM
[22]
  TGI: > 100 µM
[23]
  TGI: > 100 µM
[24]
  TGI: > 100 µM
[25]
  TGI: > 100 µM
[26]
  TGI: > 100 µM
[27]
  TGI: > 100 µM
[28]
  TGI: > 100 µM
[29]
  TGI: > 100 µM
[30]
  TGI: > 100 µM
[31]
  TGI: > 100 µM
[32]
  TGI: > 100 µM
[33]
  TGI: > 100 µM
[34]
  TGI: > 100 µM
[35]
  TGI: > 100 µM
[36]
  TGI: > 100 µM
[37]
  TGI: > 100 µM
[38]
  TGI: > 100 µM
[39]
  TGI: > 100 µM
[40]
  TGI: > 100 µM
[41]
  TGI: > 100 µM
[42]
  TGI: > 100 µM
[43]
  TGI: > 100 µM
[44]
  TGI: > 100 µM
[45]
  TGI: > 100 µM
[46]
  TGI: > 100 µM
[47]
  TGI: > 100 µM
[48]
  TGI: > 100 µM
[49]
  TGI: > 100 µM
[50]
  TGI: > 100 µM
[51]
  TGI: > 100 µM
[52]
  TGI: > 100 µM
[53]
  TGI: > 100 µM

## COc1c2ccsc2c(OC)c2ccsc12
[1]
  TGI: > 100 µM
[2]
  TGI: > 100 µM
[3]
  TGI: > 100 µM
[4]
  TGI: > 100 µM
[54]
  TGI: > 100 µM
[5]
  TGI: 40 µM
[6]
  TGI: > 100 µM
[7]
  TGI: > 100 µM
[55]
  TGI: > 100 µM
[10]
  TGI: > 100 µM
[11]
  TGI: > 100 µM
[12]
  TGI: > 100 µM
[56]
  TGI: > 100 µM
[13]
  TGI: > 100 µM
[15]
  TGI: > 100 µM
[16]
  TGI: > 100 µM
[57]
  TGI: > 100 µM
[17]
  TGI: > 100 µM
[18]
  TGI: > 100 µM
[19]
  TGI: > 100 µM
[20]
  TGI: > 100 µM
[22]
  TGI: > 100 µM
[24]
  TGI: > 100 µM
[26]
  TGI: > 100 µM
[58]
  TGI: > 100 µM
[59]
  TGI: > 100 µM
[60]
  TGI: > 100 µM
[61]
  TGI: > 100 µM
[27]
  TGI: > 100 µM
[28]
  TGI: > 100 µM
[29]
  TGI: > 100 µM
[30]
  TGI: > 100 µM
[31]
  TGI: > 100 µM
[62]
  TGI: > 100 µM
[32]
  TGI: > 100 µM
[33]
  TGI: > 100 µM
[63]
  TGI: > 100 µM
[34]
  TGI: > 100 µM
[64]
  TGI: > 100 µM
[35]
  TGI: > 100 µM
[36]
  TGI: > 100 µM
[37]
  TGI: > 100 µM
[38]
  TGI: > 100 µM
[65]
  TGI: > 100 µM
[39]
  TGI: > 100 µM
[40]
  TGI: > 100 µM
[41]
  TGI: > 100 µM
[42]
  TGI: > 100 µM
[43]
  TGI: > 100 µM
[44]
  TGI: > 100 µM
[46]
  TGI: > 100 µM
[47]
  TGI: > 100 µM
[66]
  TGI: > 100 µM
[48]
  TGI: > 100 µM
[49]
  TGI: > 100 µM
[50]
  TGI: > 100 µM
[51]
  TGI: > 100 µM
[52]
  TGI: > 100 µM

## CCCC(=O)NC(Nc1ccc(F)cc1)(C(F)(F)F)C(F)(F)F
[1]
  TGI: > 100 µM
[2]
  TGI: > 100 µM
[3]
  TGI: > 100 µM
[4]
  TGI: > 100 µM
[54]
  TGI: > 100 µM
[5]
  TGI: > 100 µM
[6]
  TGI: > 26.7 µM
[7]
  TGI: > 92.8 µM
[55]
  TGI: > 100 µM
[10]
  TGI: > 100 µM
[11]
  TGI: > 100 µM
[12]
  TGI: > 100 µM
[56]
  TGI: > 100 µM
[13]
  TGI: > 100 µM
[15]
  TGI: > 100 µM
[16]
  TGI: > 100 µM
[57]
  TGI: > 100 µM
[17]
  TGI: > 100 µM
[18]
  TGI: > 100 µM
[19]
  TGI: > 100 µM
[20]
  TGI: > 100 µM
[22]
  TGI: > 100 µM
[24]
  TGI: > 100 µM
[26]
  TGI: > 100 µM
[58]
  TGI: > 100 µM
[59]
  TGI: > 100 µM
[60]
  TGI: > 100 µM
[61]
  TGI: > 100 µM
[27]
  TGI: > 100 µM
[28]
  TGI: > 100 µM
[29]
  TGI: > 100 µM
[30]
  TGI: > 100 µM
[31]
  TGI: > 100 µM
[62]
  TGI: > 100 µM
[32]
  TGI: > 100 µM
[33]
  TGI: > 74.2 µM
[63]
  TGI: > 100 µM
[34]
  TGI: > 100 µM
[64]
  TGI: > 100 µM
[67]
  TGI: > 100 µM
[35]
  TGI: > 100 µM
[36]
  TGI: > 100 µM
[37]
  TGI: > 100 µM
[38]
  TGI: > 100 µM
[65]
  TGI: 67 µM
[39]
  TGI: > 100 µM
[40]
  TGI: > 100 µM
[41]
  TGI: > 100 µM
[42]
  TGI: > 100 µM
[43]
  TGI: > 100 µM
[44]
  TGI: > 100 µM
[46]
  TGI: > 100 µM
[47]
  TGI: > 100 µM
[66]
  TGI: > 100 µM
[48]
  TGI: > 100 µM
[49]
  TGI: > 100 µM
[50]
  TGI: > 100 µM
[51]
  TGI: > 100 µM
[52]
  TGI: > 100 µM
